Experimental data taken from ChEMBL document CHEMBL1131398, “First synthesis of alternating SATE-phosphotriester/phosphodiester prooligonucleotides on solid support” (Bioorg Med Chem Lett, 1998).

Tests used:
[1] = Lipophilicity of compound evaluated by HPLC retention time on reverse phase C18 column; type: physicochemical
[2] = Half-life in the presence of total cell extract(TCE) was evaluated.; type: ADME
[3] = Half-life in the presence of pig liver esterase(PLE) was evaluated.; type: ADME, tissue-based, Sus scrofa
[4] = Half-life in the presence of pig liver esterase(PLE) was evaluated; […]; type: ADME, Sus scrofa; conditions: in vitro

Row | SMILES | Retention time [1] | half-life [2] | half-life [3] | T1/2 [4]
1 | Cc1cn([C@H]2C[C@H](OP(=O)(O)S)[C@@H](COP(=O)(OCCSC(=O)C(C)(C)C)O[C@H]3C[C@H](n4cc(C)c(=O)[nH]c4=O)O[C@@H]3COP(=O)(S)O[C@H]3C[C@H](n4cc(C)c(=O)[nH]c4=O)O[C@@H]3COP(=O)(OCCSC(=O)C(C)(C)C)O[C@H]3C[C@H](n4cc(C)c(=O)[nH]c4=O)O[C@@H]3COP(=O)(S)O[C@H]3C[C@H](n4cc(C)c(=O)[nH]c4=O)O[C@@H]3COP(=O)(OCCSC(=O)C(C)(C)C)O[C@H]3C[C@H](n4cc(C)c(=O)[nH]c4=O)O[C@@H]3COP(=O)(S)O[C@H]3C[C@H](n4cc(C)c(=O)[nH]c4=O)O[C@@H]3COP(=O)(OCCSC(=O)C(C)(C)C)O[C@H]3C[C@H](n4cc(C)c(=O)[nH]c4=O)O[C@@H]3COP(=O)(S)O[C@H]3C[C@H](n4cc(C)c(=O)[nH]c4=O)O[C@@H]3COP(=O)(OCCSC(=O)C(C)(C)C)O[C@H]3C[C@H](n4cc(C)c(=O)[nH]c4=O)O[C@@H]3COP(=O)(S)O[C@H]3C[C@H](n4cc(C)c(=O)[nH]c4=O)O[C@@H]3COP(=O)(OCCSC(=O)C(C)(C)C)O[C@H]3C[C@H](n4cc(C)c(=O)[nH]c4=O)O[C@@H]3CO)O2)c(=O)[nH]c1=O (stereo not given in full) | 51.9 min | 3 h |  | Stable
2 | Cc1cn([C@H]2C[C@H](OP(=O)(O)OC[C@H]3O[C@@H](n4cc(C)c(=O)[nH]c4=O)C[C@@H]3OP(=S)(OCCSC(=O)C(C)(C)C)OC[C@H]3O[C@@H](n4cc(C)c(=O)[nH]c4=O)C[C@@H]3OP(=O)(O)OC[C@H]3O[C@@H](n4cc(C)c(=O)[nH]c4=O)C[C@@H]3OP(=S)(OCCSC(=O)C(C)(C)C)OC[C@H]3O[C@@H](n4cc(C)c(=O)[nH]c4=O)C[C@@H]3OP(=O)(O)OC[C@H]3O[C@@H](n4cc(C)c(=O)[nH]c4=O)C[C@@H]3OP(=S)(OCCSC(=O)C(C)(C)C)OC[C@H]3O[C@@H](n4cc(C)c(=O)[nH]c4=O)C[C@@H]3OP(=O)(O)OC[C@H]3O[C@@H](n4cc(C)c(=O)[nH]c4=O)C[C@@H]3OP(=S)(OCCSC(=O)C(C)(C)C)OC[C@H]3O[C@@H](n4cc(C)c(=O)[nH]c4=O)C[C@@H]3OP(=O)(O)OC[C@H]3O[C@@H](n4cc(C)c(=O)[nH]c4=O)C[C@@H]3OP(=S)(OCCSC(=O)C(C)(C)C)OC[C@H]3O[C@@H](n4cc(C)c(=O)[nH]c4=O)C[C@@H]3OP(=O)(O)OC[C@H]3O[C@@H](n4cc(C)c(=O)[nH]c4=O)C[C@@H]3OP(O)(=S)OCCSC(=O)C(C)(C)C)[C@@H](CO)O2)c(=O)[nH]c1=O (stereo not given in full) | 51.7 min | 2.5 h |  | Stable

Now from value to molecule:

Row | Retention time [1] | half-life [2] | half-life [3] | T1/2 [4] | SMILES
3 | 54.7 min | 0.25 h | 5 min |  | CO[C@@H]1[C@H](OP(=O)(O)O)[C@@H](COP(=O)(O)O[C@H]2[C@@H](OC)[C@H](n3ccc(=O)[nH]c3=O)O[C@@H]2COP(=O)(O)O[C@H]2[C@@H](OC)[C@H](n3ccc(=O)[nH]c3=O)O[C@@H]2COP(=O)(OCCSC(=O)C(C)(C)C)O[C@H]2C[C@H](n3cc(C)c(=O)[nH]c3=O)O[C@@H]2COP(=O)(OCCSC(=O)C(C)(C)C)O[C@H]2C[C@H](n3cc(C)c(=O)[nH]c3=O)O[C@@H]2COP(=O)(OCCSC(=O)C(C)(C)C)O[C@H]2C[C@H](n3cc(C)c(=O)[nH]c3=O)O[C@@H]2COP(=O)(OCCSC(=O)C(C)(C)C)O[C@H]2C[C@H](n3cc(C)c(=O)[nH]c3=O)O[C@@H]2COP(=O)(OCCSC(=O)C(C)(C)C)O[C@H]2C[C@H](n3cc(C)c(=O)[nH]c3=O)O[C@@H]2COP(=O)(OCCSC(=O)C(C)(C)C)O[C@H]2C[C@H](n3cc(C)c(=O)[nH]c3=O)O[C@@H]2COP(=O)(O)O[C@H]2[C@@H](OC)[C@H](n3cc(C)c(=O)[nH]c3=O)O[C@@H]2COP(=O)(O)O[C@H]2[C@@H](OC)[C@H](n3ccc(=O)[nH]c3=O)O[C@@H]2COP(=O)(O)O[C@H]2[C@@H](OC)[C@H](n3ccc(=O)[nH]c3=O)O[C@@H]2CO)O[C@H]1n1ccc(=O)[nH]c1=O (stereo not given in full)
4 | 48.8 min | 1 h |  | Stable | Cc1cn([C@H]2C[C@H](OP(=O)(O)O)[C@@H](COP(=O)(OCCSC(=O)C(C)(C)C)O[C@H]3C[C@H](n4cc(C)c(=O)[nH]c4=O)O[C@@H]3COP(=O)(O)O[C@H]3C[C@H](n4cc(C)c(=O)[nH]c4=O)O[C@@H]3COP(=O)(OCCSC(=O)C(C)(C)C)O[C@H]3C[C@H](n4cc(C)c(=O)[nH]c4=O)O[C@@H]3COP(=O)(O)O[C@H]3C[C@H](n4cc(C)c(=O)[nH]c4=O)O[C@@H]3COP(=O)(OCCSC(=O)C(C)(C)C)O[C@H]3C[C@H](n4cc(C)c(=O)[nH]c4=O)O[C@@H]3COP(=O)(O)O[C@H]3C[C@H](n4cc(C)c(=O)[nH]c4=O)O[C@@H]3COP(=O)(OCCSC(=O)C(C)(C)C)O[C@H]3C[C@H](n4cc(C)c(=O)[nH]c4=O)O[C@@H]3COP(=O)(O)O[C@H]3C[C@H](n4cc(C)c(=O)[nH]c4=O)O[C@@H]3COP(=O)(OCCSC(=O)C(C)(C)C)O[C@H]3C[C@H](n4cc(C)c(=O)[nH]c4=O)O[C@@H]3COP(=O)(O)O[C@H]3C[C@H](n4cc(C)c(=O)[nH]c4=O)O[C@@H]3COP(=O)(OCCSC(=O)C(C)(C)C)O[C@H]3C[C@H](n4cc(C)c(=O)[nH]c4=O)O[C@@H]3CO)O2)c(=O)[nH]c1=O (stereo not given in full)
5 | 58.4 min | 17 h |  | Stable | Cc1cn([C@H]2C[C@H](OP(=O)(O)S)[C@@H](COP(=S)(OCCSC(=O)C(C)(C)C)O[C@H]3C[C@H](n4cc(C)c(=O)[nH]c4=O)O[C@@H]3COP(=O)(S)O[C@H]3C[C@H](n4cc(C)c(=O)[nH]c4=O)O[C@@H]3COP(=S)(OCCSC(=O)C(C)(C)C)O[C@H]3C[C@H](n4cc(C)c(=O)[nH]c4=O)O[C@@H]3COP(=O)(S)O[C@H]3C[C@H](n4cc(C)c(=O)[nH]c4=O)O[C@@H]3COP(=S)(OCCSC(=O)C(C)(C)C)O[C@H]3C[C@H](n4cc(C)c(=O)[nH]c4=O)O[C@@H]3COP(=O)(S)O[C@H]3C[C@H](n4cc(C)c(=O)[nH]c4=O)O[C@@H]3COP(=S)(OCCSC(=O)C(C)(C)C)O[C@H]3C[C@H](n4cc(C)c(=O)[nH]c4=O)O[C@@H]3COP(=O)(S)O[C@H]3C[C@H](n4cc(C)c(=O)[nH]c4=O)O[C@@H]3COP(=S)(OCCSC(=O)C(C)(C)C)O[C@H]3C[C@H](n4cc(C)c(=O)[nH]c4=O)O[C@@H]3COP(=O)(S)O[C@H]3C[C@H](n4cc(C)c(=O)[nH]c4=O)O[C@@H]3COP(=S)(OCCSC(=O)C(C)(C)C)O[C@H]3C[C@H](n4cc(C)c(=O)[nH]c4=O)O[C@@H]3CO)O2)c(=O)[nH]c1=O (stereo not given in full)
